Assay results published in patent US11274129B2, “Methods for protein tyrosine phosphorylation profiling with variant SH2 domains” (priority 2016, dated 2022).
pKd: −log10 of the molar value.

Key:
[1] = system: mixture of 54 different pTyr-including peptides derived from 54 TK activation loops; assay: Capture of pTyr-including peptides from a mixture of TK activation loop peptides, scheduled PRM; format: binding
Procedure: Equal molar amounts (10 nmole) of the wild-type (wt) human Src SH2 domain and the DM and TrM human Src SH2 Superbinders (SEQ ID NO: 14 and 5, respectively) expressed with His6 and GST tags were used to capture pTyr-including peptides from a mixture of 54 different pTyr-including peptides (10 pmole each) derived from 54 TK activation loops. The isolated peptides were identified by PRM and quantified based on the corresponding MS peak area. 1.8% of the eluted peptides were injected into a Q-Exactive (Thermo Fisher) preceded with a nano-LC system.
Shown are the amounts of pTyr-including peptides captured, based on the corresponding peak area of PRM signal, by each of the parent human Src SH2 domain and the DM and TrM human Src SH2 Superbinders.

[2] = biological target: VEGFR1-pTyr^1213 peptide DVRpYVNAAKF; conditions: peptide VEGFR1-pTyr^1213 DVRpYVNAAKF; read-out: equilibrium dissociation constant (Kd); cited from earlier work
[3] = biological target: EGFR-pTyr^978 peptide PQRpYLVIQGD; conditions: peptide EGFR-pTyr^978 PQRpYLVIQGD; read-out: equilibrium dissociation constant (Kd); cited from earlier work
[4] = biological target: EGFR-pTyr^1110 peptide NPVpYHNQPLN; conditions: peptide EGFR-pTyr^1110 NPVpYHNQPLN; read-out: equilibrium dissociation constant (Kd); cited from earlier work
[5] = biological target: MidT-pTyr^324 peptide EPQpYEEIPIYL; conditions: peptide MidT-pTyr^324 EPQpYEEIPIYL; read-out: equilibrium dissociation constant (Kd); cited from earlier work
[6] = biological target: RSKL-pTyr^423 peptide YQHpYDLDLKD; conditions: peptide RSKL-pTyr^423 YQHpYDLDLKD; read-out: equilibrium dissociation constant (Kd); cited from earlier work
[7] = biological target: ShcA-pTyr^239 peptide DHQpYYNDFPG; conditions: peptide ShcA-pTyr^239 DHQpYYNDFPG; read-out: equilibrium dissociation constant (Kd); cited from earlier work
[8] = biological target: ShcA-pTyr^317 peptide DPSpYVNVQNL; conditions: peptide ShcA-pTyr^317 DPSpYVNVQNL; read-out: equilibrium dissociation constant (Kd); cited from earlier work
Designed peptide GGpYGG = conditions: read-out: equilibrium dissociation constant (Kd); cited from earlier work

Wild type: wild-type (parent) human Src SH2 domain; SEQ ID NO: 4, His6/GST-tagged form SEQ ID NO: 10 [reference compound]
number of the 54 pTyr-including peptides captured / detected by PRM ([1]; 10 nmole SH2 domain, 10 pmole each peptide): 22 | PRM signal peak area ([1]; BLK (pTyr389) IIDSEpYTAQEGAK, fragment ion b2): 0 | PRM signal peak area ([1]; BMX (pTyr566) YVLDDQpYVSSVGTK, fragment ion b2): 0 | PRM signal peak area ([1]; BTK (pTyr551) YVLDDEpYTSSVGSK, fragment ion b2): 4,214 | PRM signal peak area ([1]; DDR1 (pTyr796/797) NLYAGDpYpYR, fragment ion b2): 47,729 | PRM signal peak area ([1]; DDR2 (pTyr740/741) NLYSGDpYpYR, fragment ion y6): 15,251 | PRM signal peak area ([1]; EPHA1 (pTyr781) LLDDFDGTpYETQGGK, fragment ion y9): 0 | PRM signal peak area ([1]; EPHA2 (pTyr772) VLEDDPEATpYTTSGGK, fragment ion y11): 0 | PRM signal peak area ([1]; EPHA3 (pTyr779) VLEDDPEAApYTTR, fragment ion y8): 0 | PRM signal peak area ([1]; EPHA6 (pTyr830) VLEDDPEAApYTTTGGK, fragment ion b2): 2,742 | PRM signal peak area ([1]; EPHA8 (pTyr793) VLEDDPDAApYTTTGGK, fragment ion y11): 0 | PRM signal peak area ([1]; EPHB1 (pTyr778) YLQDDTSDPTpYTSSLGGK, fragment ion y10): 0 | PRM signal peak area ([1]; EPHB2 (pTyr780) FLEDDTSDPTpYTSALGGK, fragment ion Y3): 10,833 | PRM signal peak area ([1]; EPHB3 (pTyr792) FLEDDPSDPTpYTSSLGGK, fragment ion y10): 0 | PRM signal peak area ([1]; EPHB4 (pTyr774) FLEENSSDPTpYTSSLGGK, fragment ion y10): 0 | PRM signal peak area ([1]; ERBB2 (pTyr877) LLDIDETEpYHADGGK, fragment ion b3): 0 | PRM signal peak area ([1]; ERBB3 (pTyr866) QLLpYSEAK, fragment ion y2): 41,881 | PRM signal peak area ([1]; FER (pTyr714) QEDGGVpYSSSGLK, fragment ion y7): 0 | PRM signal peak area ([1]; FES (pTyr713) EEADGVpYAASGGLR, fragment ion y8): 0 | PRM signal peak area ([1]; FGFR1 (pTyr653/654) DIHHIDpYpYK, fragment ion b6): 28,495 | PRM signal peak area ([1]; FGFR2 (pTyr656/657) DINNIDpYpYK, fragment ion y4): 51,625 | PRM signal peak area ([1]; FGFR3 (pTyr647/648) DVHNLDpYpYK, fragment ion b3): 103,678 | PRM signal peak area ([1]; FGFR4 (pTyr642/643) GVHHIDpYpYK, fragment ion b3): 29,764 | PRM signal peak area ([1]; FRK (pTyr387) VDNEDIpYESR, fragment ion y6): 0 | PRM signal peak area ([1]; GSK3 (pTyr279/216) GEPNVSpYICSR, fragment ion y6): 0 | PRM signal peak area ([1]; HCK (pTyr411) VIEDNEpYTAR, fragment ion b2): 0 | PRM signal peak area ([1]; INSRR (pTyr1145/1146) DVYETDpYpYR, fragment ion y5): 0 | PRM signal peak area ([1]; ITK (pTyr512) FVLDDQpYTSSTGTK, fragment ion y11): 0 | PRM signal peak area ([1]; JAK1 (pTyr1034/1035) EpYpYTVK, fragment ion y2): 58,254 | PRM signal peak area ([1]; JAK2 (pTyr221) IQDpYHILTR, fragment ion Y3): 0 | PRM signal peak area ([1]; JAK3 (pTyr980/981) DpYpYVVR, fragment ion y2): 23,291 | PRM signal peak area ([1]; KIT (pTyr823) NDSNpYVVK, fragment ion b2): 0 | PRM signal peak area ([1]; LMTK2 (pTyr295) EDpYIETDDK, fragment ion b2): 0 | PRM signal peak area ([1]; LMTK3 (pTyr296/297) EDpYpYLTPER, fragment ion y3): 29,887 | PRM signal peak area ([1]; MERTK (pTyr753/754) IYSGDpYpYR, fragment ion b2): 0 | PRM signal peak area ([1]; MET (pTyr1234/1235) EpYpYSVHNK, fragment ion y2): 26,824 | PRM signal peak area ([1]; MUSK (pTyr755/756) NIYSADpYpYK, fragment ion y2): 47,647 | PRM signal peak area ([1]; NTRK1 (pTyr680/681) DIYSTDpYpYR, fragment ion b2): 21,736 | PRM signal peak area ([1]; NTRK2 (pTyr706/707) DVYSTDpYpYR, fragment ion y4): 39,632 | PRM signal peak area ([1]; PGFRB (pTyr857) DSNpYISK, fragment ion y2): 0 | PRM signal peak area ([1]; PTK7 (pTyr960/961) DVYNSEpYpYHFR, fragment ion b2): 0 | PRM signal peak area ([1]; RET (pTyr905) DVYEEDSpYVK, fragment ion b2): 0 | PRM signal peak area ([1]; RON (pTyr1238/1239) EpYpYSVQQHR, fragment ion y4): 5,434 | PRM signal peak area ([1]; ROR1 (pTyr645/646) EIYSADpYpYR, fragment ion y6): 32,356 | PRM signal peak area ([1]; ROR2 (pTyr645/646) EVYAADpYpYK, fragment ion y5): 85,894 | PRM signal peak area ([1]; SRC (pTyr419) LIEDNEpYTAR, fragment ion b2): 0 | PRM signal peak area ([1]; SRMS (pTyr380) DDIpYSPSSSSK, fragment ion y8): 0 | PRM signal peak area ([1]; TEC (pTyr519) YVLDDQpYTSSSGAK, fragment ion b2): 0 | PRM signal peak area ([1]; TIE1 (pTyr1007) GEEVpYVK, fragment ion b2): 0 | PRM signal peak area ([1]; TIE2 (pTyr992) GQEVpYVK, fragment ion b2): 0 | PRM signal peak area ([1]; TXK (pTyr420) YVLDDEpYVSSFGAK, fragment ion b2): 1,519 | PRM signal peak area ([1]; TYK2 (pTyr1054/1055) AVPEGHEpYpYR, fragment ion y6): 11,551 | PRM signal peak area ([1]; VGFR1 (pTyr1053) NPDpYVR, fragment ion y3): 0 | PRM signal peak area ([1]; VGFR2 (pTyr1059) DPDpYVR, fragment ion Y3): 0 | pKd [2]: 5.19 | pKd [3]: 5.43 | pKd [4]: 5.16 | pKd [5]: 6.89 | pKd [6]: 5.41 | pKd [7]: 6.15 | pKd [8]: 5.66 | pKd (Designed peptide GGpYGG): < 4.52
